In patent publication US11819500B2, “T-cell regulation in t-cell mediated diseases by reducing pathogenic function of TH17 in a human subject through treatment with a nitroxide” (priority 2016, dated 2023):

What was measured:
Bri3 [1] = assay: Serum level of Bri3 after Tempol treatment of a human subject; assay type: in vivo; conditions: human subject with or at risk of a neurodegenerative disease (e.g., Alzheimer's Disease); 1500 mg per day for 180 days
Description: A human subject is administered a dose of 1500 mg of Tempol (or a nitroxide antioxidant) per day for 180 days. The human subject may be a 70-kilogram human subject over the age of 65. The human subject may be at risk of developing a neurodegenerative disease (e.g., Alzheimer's Disease), may have symptoms of a neurodegenerative disease, and/or may have a neurodegenerative disease. The risk, the symptoms, or the neurodegenerative disease may be caused by decreased expression level of Bri3. The human subject can be identified. The dose may be administered in a single dose, or may be administered as a number of smaller doses over a 24-hour period: for example, three 500-mg doses at eight-hour intervals. Following treatment, the serum level of Bri3 is increased. Increased Bri3 expression can inhibit amyloid precursor protein (APP) processing and amyloid plaque deposition, thus suppressing or reversing development of the neurodegenerative disease.

[2] = system: Cd5l, Perp, Unc5b, Bag5 or Bri3; conditions: human, in vivo
Bri3 [3] = assay: Gene expression in cardiac tissue after Tempol administration (chip-based microarray); assay type: in vivo; conditions: mice aged 31 months, Tempol 5 mg/g of food from 14 to 31 months, control mice 1549
Description: (§1) To assess the effects of Tempol on gene expression, Tempol was administered to experimental mice at a dose of 5 mg/g of food from 14 months to 31 months after birth. Mice receiving the same food without the addition of Tempol were used as a negative control. At the age of 31 months, the experimental animals were sacrificed and the hearts were surgically removed. The expression of a broad spectrum of genes in the cardiac tissue was assessed using chip-based microarray technology. Such chips are well known in the art and are widely used to assess gene expression.

Perp [4] = assay: as above; assay type: in vivo; conditions: mice aged 31 months, Tempol 5 mg/g of food from 14 to 31 months, control mice 49
Description: as §1

Unc5b = assay: as above; assay type: in vivo; conditions: mice aged 31 months, Tempol 5 mg/g of food from 14 to 31 months, control mice 103
Description: as §1

Bag5 = assay: as above; assay type: in vivo; conditions: mice aged 31 months, Tempol 5 mg/g of food from 14 to 31 months, control mice 300
Description: as §1

Cd5l [5] = assay: as above; assay type: in vivo; conditions: mice aged 31 months, Tempol 5 mg/g of food from 14 to 31 months, control mice 150
Description: as §1

Perp [6] = assay: Level of Perp after Tempol treatment of a human subject; assay type: in vivo; conditions: 70-kilogram human subject with a disorder such as a desmosome-associated disorder; 1500 mg per day for 180 days
Description: A human subject is administered a dose of 1500 mg of Tempol (or a nitroxide antioxidant) per day for 180 days. The human subject is a 70-kilogram human subject. The human subject may have a disorder (such as a desmosome-associated disorder, which can be associated or characterized by damaged epithelial tissue). The human subject can be identified. The dose may be administered in a single dose, or may be administered as a number of smaller doses over a 24-hour period: for example, three 500-mg doses at eight-hour intervals. Following treatment, the level (e.g., the serum level) of Perp is increased, which can in turn increase desmosome function (e.g., characterized by epithelial integrity)

Cd5l [7] = assay: Serum level of Cd5l after Tempol treatment of a human subject; assay type: in vivo; conditions: 1500 mg per day for 180 days
Description: A human subject is administered a dose of 1500 mg of Tempol (or a nitroxide antioxidant) per day for 180 days. The human subject may be a 70-kilogram human subject. The human subject may be at risk of having pathogenic T-helper cell activity, may have symptoms of pathogenic T-helper cell activity, and/or may have a disease (e.g., an autoimmune disease) associated with pathogenic T-helper cell activity (e.g., pathogenic T-helper 17 cell activity). The autoimmune disease may be mediated by IL-23 as an effector molecule. The human subject can be identified. The dose may be administered in a single dose, or may be administered as a number of smaller doses over a 24-hour period: for example, three 500-mg doses at eight-hour intervals. Following treatment, the serum level of Cd5l is increased. Increased Cd5l expression can alter lipid biosynthesis within the T-helper cell, thus suppressing the pathogenic T-helper cell activity and/or reversing the effect of the pathogenic T-helper cell activity.
A human subject is administered a dose of 1500 mg of Tempol (or a nitroxide antioxidant) per day for 180 days. The human subject may be a 70-kilogram human subject. The human subject may be at risk of developing an autoimmune disease, may have symptoms of an autoimmune disease, and/or may have an autoimmune disease. The autoimmune disease may be mediated by IL-23 as an effector molecule. […]

With CC1(C)CC(O)CC(C)(C)N1[O] [Tempol, 4-hydroxy-2,2,6,6-tetramethylpiperidine-1-oxyl] the “serum level of Bri3” value (Bri3 [1]) was “increased”, the “serum level of Cd5l, Perp, Unc5b, Bag5 or Bri3” value [2] was “increased” and the “Bri3 expression, Tempol-treated mice” value (Bri3 [3]) was 1835. The “Perp expression, Tempol-treated mice” value (Perp [4]) was 82, the “Unc5b expression, Tempol-treated mice” value (Unc5b) was 172 and the “Bag5 expression, Tempol-treated mice” value (Bag5) was 370. For the same compound, the “Cd5l expression, Tempol-treated mice” value (Cd5l [5]) was 406, the “level (e.g., the serum level) of Perp” value (Perp [6]) was “increased” and the “serum level of Cd5l” value (Cd5l [7]; human subject with or at risk of developing an autoimmune disease) was “increased”. For the same compound, the “serum level of Cd5l” value (Cd5l [7]; human subject with or at risk of pathogenic T-helper cell activity) was “increased”.
